Read-outs that look alike come from different tables or passages of the source.
System: peroxidase
Test: Activity of the isolated peroxidase towards various hydrogen donors
Type: biochemical, Coprinus cinereus IFO 30116
Procedure: Its action is shown by the followina reaction formula: [drawing 2] where AH2 is a hydrogen donor, and A is the oxidized hydrogen donor.
The enzyme was assayed for activity with respect to a variety of hydrogen donors.
Values snown in Taoie 2 are relative ones with that of phenol set at 100%.

[1] = relative values with that of phenol set at 100%, peroxidase of Coprinus cinereus IFO 30116

Row | Compound | Strength of Action [1] | Strength of Action
1 | Oc1cccc2ccccc12 [α-naphthol] | 1200% | –
2 | Oc1cccc(O)c1 [Resorcinol] | 0% | –
3 | Oc1ccc(O)cc1 [Hydroquinone] | 57% | –
4 | COc1ccccc1O [Guaiacol] | 200% | –
5 | δ-hydroquinon | 57% | –
6 | COc1cc(-c2ccc(N)c(OC)c2)ccc1N [o-dianisidine] | 5400% | –
7 | Oc1ccccc1 [Phenol] | 100 (%) | –
8 | Oc1ccccc1O [Catechol] | 460% | –
9 | Cc1cc(-c2ccc(N)c(C)c2)ccc1N [o-tolidine] | – | 5400%

Reference: patent publication EP0200565A2, “Method for production of peroxidase” (NISSIN FOOD PRODUCTS CO., LTD., priority 1985, dated 1986)
